The nature of data set [1]: in vivo. The settings on record: Sprague-Dawley, rat, plasma, po, 2 mg/kg.
Data set [2] can be described thus: in vivo. The settings on record: Sprague-Dawley, rat, iv, 0.5 mg/kg.
A short description of data set [3]: in vivo. Particulars: Sprague-Dawley, rat, plasma, po, 2 mg/kg. This is another data set of the same source.
Data set [4] in a line: in vivo. Particulars: Sprague-Dawley, rat, plasma, iv, 0.5 mg/kg.
The nature of data set [5]: in vivo. The settings on record: Sprague-Dawley, rat, plasma, po, 2 mg/kg. The source holds these as a separate data set.
The nature of data set [6]: Ratio of drug level in brain to plasma in Sprague-Dawley rat at 0.5 mg/kg, iv or 2 mg/kg, po by LC-MS/MS analysis. The settings on record: read-out: BPR. It is filed as ADME, organism-based.
The nature of data set [7]: in vivo. The settings on record: Sprague-Dawley, rat, plasma, iv, 0.5 mg/kg. This is another data set of the same source.
Data set [8] can be described thus: in vivo. The settings on record: Sprague-Dawley, rat, iv, 0.5 mg/kg. The source holds these as a separate data set.
For data set [9], the system named is Plasma. Briefly: Plasma concentration in Sprague-Dawley rat at 100 mg/kg administered via oral gavage by LC-MS/MS method. The settings on record: in vivo. It is filed as ADME, organism-based.
The subject of data set [10] is Plasma. Kind of data set: Free plasma concentration in Sprague-Dawley rat at 100 mg/kg administered via oral gavage by LC-MS/MS method. It is filed as ADME, organism-based. Particulars: in vivo.
Data set [11] can be described thus: Ratio of drug level in brain to plasma in Sprague-Dawley rat at 1 mg/kg, iv or 10 mg/kg, po by LC-MS/MS analysis. It is filed as ADME, organism-based. Particulars: read-out: BPR.
Data set [12] is described as follows: Half life in Sprague-Dawley rat plasma at 1 mg/kg, iv administered as single bolus dose by LC-MS/MS analysis. Type of data set: ADME, organism-based.
Data set [13] is described as follows: in vitro. The settings on record: human, Caco-2.
The nature of data set [14]: Volume of distribution at steady state in Sprague-Dawley rat plasma at 1 mg/kg, iv administered as single bolus dose by LC-MS/MS analysis. It is filed as ADME, organism-based. Particulars: read-out: Vdss.
A short description of data set [15]: in vivo. The settings on record: Sprague-Dawley, rat, plasma, po, 10 mg/kg.
The nature of data set [16]: AUC (0 to last) in Sprague-Dawley rat plasma at 1 mg/kg, iv administered as single bolus dose by LC-MS/MS analysis. Type of data set: ADME, organism-based. Details: dose 1 mg/kg, route intravenous, time 0 - last.
Data set [17] is described as follows: in vivo. Particulars: Sprague-Dawley, rat, plasma, po, 10 mg/kg. The source holds these as a separate data set.
Data set [18] in a line: in vivo. Particulars: Sprague-Dawley, rat, plasma, po, 10 mg/kg. This is another data set of the same source.
Data set [19] in a line: Clearance in Sprague-Dawley rat at 1 mg/kg, iv administered as single bolus dose by LC-MS/MS analysis. It is filed as ADME, organism-based. Particulars: in vivo.

The structures appear in SMILES notation.

For `N[C@@H]1CCC=C(c2ccc(F)cc2)[C@H]1COc1cc(F)c(S(=O)(=O)Nc2cscn2)cc1Cl`, in data set [1], the time of peak concentration (Tmax) came to 1.7 h. In addition, the clearance in data set [2] was 39.2 mL/min/kg. The bioavailability in data set [3] was determined as 18.4%. Moreover, in data set [4], the half-life is 3.6 h. For the same molecule, the AUC(0-t) in data set [5] was 0.25 µM·h; in data set [8], 0.34 µM·h. Further, the Kp in [6] is 0.26. In addition, in data set [7], the Vd came out at 8.9 L/kg.
Turning to `O=S(=O)(Nc1cscn1)c1cc(Cl)c(OC[C@H]2NCCC=C2c2ccc(F)cc2)cc1F`, the concentration in [9] came out at 82.1 µM. Moreover, the “Cp(f)” value in data set [10] came to 0.41 µM.
For `O=S(=O)(Nc1cscn1)c1cc(Cl)c(OCC2NCCC=C2c2ccc(F)cc2)cc1F` (stereo unspecified), the Kp in data set [11] was found to be 0.017. In data set [12], the half-life is 2.7 h. For the same molecule, in data set [13], the Papp A→B is 3.2 ×10⁻⁶ cm/s. In [14], the Vd amounted to 0.6 L/kg. The Tmax in [15] came to 3.8 h. Further, the figures for the AUC(0-t) in data set [16] and in data set [17] were 3.56 µM·h and 41.8 µM·h, respectively. This molecule also registered a bioavailability in [18] of 64.8%. Also, in data set [19], the clearance was determined as 4.5 mL/min/kg.
`Nc1[nH]ncc1-c1cc(Cl)ccc1Oc1cc(F)c(S(=O)(=O)Nc2cscn2)cc1Cl` [PF-05089771] registered a concentration in data set [9] of 55.8 µM. The “Cp(f)” value in [10] amounted to 0.279 µM.

The Tmax is the time from dosing to the highest level. The clearance is a measure of how efficiently the substance is removed, as volume per time. Low values mean inefficient removal, high ones efficient removal. What is called bioavailability is the share of a dose that reaches the circulation, judged against a reference dose that is usually intravenous. Low readings indicate little systemic uptake, high ones much systemic uptake. As a reminder, the half-life is how long it takes for the measured level to halve. Low readings indicate rapid decline, high ones slow decline. One may read the AUC(0-t) as exposure summed from dosing to a finite time, without extrapolation to infinity. Read a high AUC(0-t) as high exposure. Usually Papp A→B stands for the apparent permeability from the apical to the basolateral side of a cell layer. The low end stands for slow passage, the high end for fast passage.

Values taken from ChEMBL document CHEMBL4017456, “The discovery of tetrahydropyridine analogs as hNav1.7 selective inhibitors for analgesia” (Bioorg Med Chem Lett, 2017).
